A word on the IC50: it is the concentration that inhibits the measured activity by half.

One data set relates to supercoiled pUC18 DNA. Kind of data set: Modification (strand breaks) of supercoiled plasmid DNA, gel electrophoresis. It counts as biochemical. Conditions: 12.8 μM, anaerobic, about one hour. Here is the method:
Referring now to FIG. 6, supercoiled DNA (0.154 mM base pairs) was modified by a diastereomeric mixture of the P^4+ complex in the presence and absence of a reducing agent. Lane M was the marker lane. Lane 1 was a DNA control without a reducing agent. Lane 2 included DNA without P^4+ under aerobic conditions (e.g., in the presence of oxygen or O2) with GSH, Lane 2′ included DNA with GSH (0.513 mM) without P^4+ under anaerobic conditions (e.g., hypoxia). Lanes 3, 4 and 5 were representative of modifications under aerobic (O2) conditions and lanes 2′, 3′, 4′ and 5′ were representative of modifications under anaerobic (hypoxia or absent O2) conditions. […]
Modification reactions were carried out in 0.5 mL Eppendorf tubes with 2 μL of a supercoiled pUC18 DNA (1 μg/1 μL) in a total volume of 20 μL using a 5 mM sodium phosphate buffer (pH 7). […] DNA was then dried for about 30 minutes and resuspended in about 40 μL of a storage buffer (e.g., 40 mM Tris-Cl, 1 mM EDTA at pH 8.0) with 65 μL of deionized water and 12 μL of a loading buffer (e.g., 30% glycerol in water with 0.1% w/v bromophenol blue), Each reaction was then evaluated by standard gel electrophoresis methods (e.g., loaded on 1% agarose gel stained with ethidium bromide and electrophoresed at about 80 volts for about 90 minutes using a Tris-acetate-EDTA buffer at pH 8.0). […]

For data set [1], the system named is H358, a bronchioalveolar non-small cell lung cancer cell line. Kind of data set: MTT drug sensitivity assay. Conditions: 96 hours incubation; concentration that reduced formazan formation by 50%. It counts as cell-based. Here is the method:
For cytotoxicity of suitable compounds a standard MTT drug sensitivity assay was performed on cancer cells, including H358, a bronchioalveolar non-small cell lung cancer cell line. Cell density in an aliquot of cells growing in log phase was determined by counting trypan blue excluding cells in a hemocytometer and 20,000 cells were plated into each well of 96-well flat-bottomed microliter plates.
On the technique in general: Tetrazolium assays rely on reduction of a dye to a coloured formazan, in cell work by metabolically active cells.

Data set [2] can be described thus: Animal toxicity screen / MTD by intraperitoneal injection. Conditions: for MTD: intraperitoneal, mice, a = maximum dose due to poor solubility, b = acutely toxic with a single animal at 0.2 mg in 200 μL (about 6.0 mg/kg); for survival in toxicity screen: 0.2 mg in 200 μL 10 mM Tris buffer pH 7.5, intraperitoneal.
Description: Animal toxicity screens were performed by intraperitoneal injection of suitable compounds in C57BL/6NTac mice (each with an approximate weight of 30 g). For each animal, 0.2 mg of each compound in 200 μL 10 mM Tris buffer, pH 7.5 was used. […] These were further examined by injecting at least three mice with 200 μL of a freshly prepared aqueous solution of each compound at concentrations of 0.5 mg/mL, 2 mg/mL, 5 mg/mL, 10 mg/mL, 25 mg/mL and 50 mg/mL to determine MTD values.
A short description of data set [3]: Cyclic voltammetry / reduction potentials. It counts as physicochemical. Conditions: cyclic voltammetry in aqueous solution, versus normal hydrogen electrode. The text has this: This is depicted in FIG. 4 in which compounds having a tatpp or tatpq bridging ligand are provided as examples. Preferred bridging ligands have modest potentials in order for them to be accessible in a cellular milieu. […] For TJ-7p of FIG. 2, a compound in which tatpq is the bridging ligand, the first two reductions were at 70 mV and −80 mV versus the normal hydrogen electrode. These potentials are modest and easily accessible in a cellular milieu.
The reduction potential for compounds is such that these compounds are accessible to one or more reducing agents, especially in biologic conditions. For example, the bridging ligand, tatpp, when bound by two ruthenium ions in P^4+, has a reduction potential […] of about −0.22 V versus Ag/AgCl in acetonitrile. An alternate charged form of P^4+, P^3+, has an E1/2 of about −0.71 V versus Ag/AgCl in acetonitrile. These E1/2 values of the complexes make them accessible to one or more suitable reducing agents in biologic conditions.

The test system of another data set is Topo II. Kind of data set: Topoisomerase II activity on supercoiled DNA. It counts as biochemical. Conditions: 0.46-2.31 μM. Here is the method: As shown, M was the marker lane containing forms I, II and III of a DNA. For all other lanes, the DNA was supercoiled pUC18 at 30.8 μM base pairs per reaction. Lane 1 was DNA without compound or inhibitor. Lane 2 was DNA with Topo H and no compound. Lane 3 was DNA with inhibitor, m-AMSA. Lanes 4-6 included varying concentrations of P^4+ (2.31 μM, 1.15 μM and 0.46 μM, respectively). Lanes 7-9 included varying concentrations of Q^4+ (2.31 μM, 1.15 μM and 0.46 μM, respectively).
For conditions using Topo II, reactions were generally performed as described for Topo I, except that 23.1 μM of DNA was used per reaction along with either the inhibitor (m-AMSA) or varying concentrations of P^4+ or Q^4+ (0.46 to 2.31 μM) in a total volume of 20 μL. The assay buffer was altered for improved Topo II activity (using 10 mM Tris-HCl at pH 7.9, 50 mM NaCl, 50 mM KCl, 5 mM MgCl2, 0.1 mM EDTA, 0.15 mg mL BSA, and 1 mM ATP) as was the running buffer (using 100 mM Tris-borate, pH 8.3, 2 mM BDTA).

A further data set relates to calf thymus Topo I. Kind of data set: Topoisomerase I relaxation of supercoiled DNA. It counts as biochemical. Conditions: 0.62-3.08 μM. The protocol:
FIGS. 19 and 20 illustrate the ability of suitable compounds to modify Topo I and Topo II. […] For FIG. 19, lane M was the marker lane containing forms I, II and III of a DNA. For all other lanes, the DNA was supercoiled pUC18 at 30.8 μM per reaction. Lane 1 was, the DNA used was pUC18 at 30.8 μM base pairs per reaction, without compound or inhibitor. Lane 2 was DNA with Tope I and no compound. Lane 3 was DNA with inhibitor, CPT. Lane 4-6 included varying concentrations of P^4+ (3.08 μM, 1.54 μM and 0.62 μM, respectively). Lane 7-9 included varying concentrations of Q^4+ (3.08 μM, 1.54 μM and 0.62 μM, respectively).
Reaction conditions for FIGS. 19 and 20 included the addition of DNA and 5 units of calf thymus Topo I in the presence or absence of either a known inhibitor (CPT), P^4+ or Q^4+. Both P^4+ and Q^4+ were examined at varying concentrations, 0.62 μM-3.08 μM. Samples were incubated at 37 degrees Centigrade in an assay buffer (e.g., 10 mM Tri-HCl at pH 7.9, 150 mM NaCl, 1 mM EDTA, 0.1% BSA, 0.1 mM spermidine, and 5% glycerol) for about 30 minutes to allow for appropriate cleavage and religation. Relaxed intermediates were then trapped by adding 5 μL of a stopping buffer (e.g., 5% SDS, 0.05% bromophenol blue and 30% glycerol). […]

Marks after values point to notes of the source that are not given here.

As for Iron(II)-Bleomycin [Fe-BLM], the “DNA modification in the absence of oxygen, FIG. 7” value in the data set on supercoiled pUC18 DNA is “unable to modify or break DNA in the absence of oxygen”.

For the substance [Ru2(bpy)2(tpphz)(C2O4)2], in data set [1], the IC50 amounted to 100 ± 10 µM. Also, the MTD in data set [2] is on record as >15^a mg/kg.

On to [Ru2(bpy)2(tpphz)(CH3CN)4]^4+, for which the half-maximal inhibitory concentration (IC50) in data set [1] was 21 ± 2 µM. In addition, the MTD in data set [2] is <6^b mg/kg.

For [Ru2(bpy)2(tpphz)(CO)2(Cl)2]^4+, the IC50 in data set [1] was 8 ± 1 µM. In addition, in data set [2], the MTD was <6^b mg/kg.

Take [Ru2(bpy)2(tpphz)(CO)4]^4+: the MTD in data set [2] is reported as >6^a mg/kg.

In data set [3], “[Ru2(phen)4tatpp]^4+ [[Ru2(phen)4(tatpp)]^4+]” returned a first reduction potential of 170 mV and a second reduction potential of −180 mV. The same substance showed a half-inhibitory concentration (IC50) in data set [1] of 8 ± 1 µM. Moreover, the “survival in toxicity screen” value in data set [2] is recorded as “survived”.

In data set [3], “[Ru2(phen)4tatpq]^4+ [[Ru2(phen)4(tatpq)]^4+]” had a first reduction potential of 70 mV and a second reduction potential of −80 mV. In the data set on Topo II, the “Topo II inhibition compared with amsacrine (m-AMSA)” value is on record as “better than that of the known inhibitor, amsacrine”; the “Topo II inhibition, FIG. 20” value was “inhibited Topo II and its activity on supercoiled DNA”. This substance also showed an IC50 in data set [1] of 1 ± 0.1 µM. Besides, the “Topo I inhibition compared with camptothecin (CPT)” value with calf thymus Topo I is listed as “better than that of the known inhibitor, camptothecin”. Besides, the “Topo I inhibition, FIG. 19” value with calf thymus Topo I (37 degrees Centigrade, about 30 minutes) was “inhibited Topo I and its relaxation of supercoiled DNA”. In data set [2], the “survival in toxicity screen” value is on record as “survived”.
